{
  "source": "paper PMC9329436",
  "about": "“Optimization of the 4-anilinoquin(az)oline scaffold as epidermal growth factor receptor (EGFR) inhibitors for chordoma utilizing a toxicology profiling assay platform” (Scientific Reports, 2022)",
  "format_in_all_cases": "biochemical",
  "key": {"[1]": {"biological_target": "T1, 320 wild-type protein kinases (Homo sapiens, UniProt Q8WTQ7)", "T1 sequence (Q8WTQ7 1-553)": "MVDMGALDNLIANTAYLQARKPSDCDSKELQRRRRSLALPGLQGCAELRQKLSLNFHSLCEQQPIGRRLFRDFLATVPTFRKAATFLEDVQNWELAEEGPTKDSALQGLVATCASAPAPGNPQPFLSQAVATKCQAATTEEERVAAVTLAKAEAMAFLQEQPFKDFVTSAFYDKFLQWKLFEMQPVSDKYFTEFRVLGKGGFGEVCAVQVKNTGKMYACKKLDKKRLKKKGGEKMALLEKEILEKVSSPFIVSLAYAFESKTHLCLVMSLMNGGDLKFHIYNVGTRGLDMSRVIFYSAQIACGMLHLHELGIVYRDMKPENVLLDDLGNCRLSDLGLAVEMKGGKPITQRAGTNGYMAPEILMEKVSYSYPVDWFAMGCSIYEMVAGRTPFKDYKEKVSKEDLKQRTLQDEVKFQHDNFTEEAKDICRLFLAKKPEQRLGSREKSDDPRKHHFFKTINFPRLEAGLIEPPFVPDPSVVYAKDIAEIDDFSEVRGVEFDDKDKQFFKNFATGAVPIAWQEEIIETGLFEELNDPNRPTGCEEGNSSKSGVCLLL", "conditions": "singlicate", "from_the_text": "(§1) Table S4. Profiling of two compounds at two concentrations against 320 wild-type protein kinases; singlicate measurement; Residual activities (% of control)."}, "[2]": {"biological_target": "320 wild-type protein kinases (Homo sapiens, UniProt Q14289)", "conditions": "kinase PYK2, singlicate", "from_the_text": "as §1"}, "[3]": {"biological_target": "T2, 320 wild-type protein kinases (Homo sapiens, UniProt P51813)", "T2 sequence (P51813 1-675)": "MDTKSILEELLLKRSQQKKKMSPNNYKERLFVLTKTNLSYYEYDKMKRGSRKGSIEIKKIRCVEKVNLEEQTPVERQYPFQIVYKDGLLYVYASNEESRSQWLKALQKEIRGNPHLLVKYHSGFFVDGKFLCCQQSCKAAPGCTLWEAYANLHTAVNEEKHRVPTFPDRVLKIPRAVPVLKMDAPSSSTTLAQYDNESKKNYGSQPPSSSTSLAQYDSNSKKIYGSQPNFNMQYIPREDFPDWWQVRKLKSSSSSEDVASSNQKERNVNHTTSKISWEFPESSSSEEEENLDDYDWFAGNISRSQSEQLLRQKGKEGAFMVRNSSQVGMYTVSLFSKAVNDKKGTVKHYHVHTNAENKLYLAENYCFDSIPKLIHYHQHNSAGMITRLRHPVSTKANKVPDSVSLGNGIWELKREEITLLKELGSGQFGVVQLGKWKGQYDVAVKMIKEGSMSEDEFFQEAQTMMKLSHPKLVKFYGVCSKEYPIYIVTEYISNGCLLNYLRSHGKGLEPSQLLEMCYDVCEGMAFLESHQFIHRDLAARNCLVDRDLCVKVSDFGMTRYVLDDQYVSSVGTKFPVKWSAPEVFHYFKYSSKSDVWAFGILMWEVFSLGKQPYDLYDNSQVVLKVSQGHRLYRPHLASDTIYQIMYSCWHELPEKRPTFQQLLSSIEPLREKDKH", "conditions": "BMX, singlicate", "from_the_text": "as §1"}, "[4]": {"biological_target": "320 wild-type protein kinases (Homo sapiens, UniProt Q9NYL2)", "sequence (Q9NYL2 whole entry)": "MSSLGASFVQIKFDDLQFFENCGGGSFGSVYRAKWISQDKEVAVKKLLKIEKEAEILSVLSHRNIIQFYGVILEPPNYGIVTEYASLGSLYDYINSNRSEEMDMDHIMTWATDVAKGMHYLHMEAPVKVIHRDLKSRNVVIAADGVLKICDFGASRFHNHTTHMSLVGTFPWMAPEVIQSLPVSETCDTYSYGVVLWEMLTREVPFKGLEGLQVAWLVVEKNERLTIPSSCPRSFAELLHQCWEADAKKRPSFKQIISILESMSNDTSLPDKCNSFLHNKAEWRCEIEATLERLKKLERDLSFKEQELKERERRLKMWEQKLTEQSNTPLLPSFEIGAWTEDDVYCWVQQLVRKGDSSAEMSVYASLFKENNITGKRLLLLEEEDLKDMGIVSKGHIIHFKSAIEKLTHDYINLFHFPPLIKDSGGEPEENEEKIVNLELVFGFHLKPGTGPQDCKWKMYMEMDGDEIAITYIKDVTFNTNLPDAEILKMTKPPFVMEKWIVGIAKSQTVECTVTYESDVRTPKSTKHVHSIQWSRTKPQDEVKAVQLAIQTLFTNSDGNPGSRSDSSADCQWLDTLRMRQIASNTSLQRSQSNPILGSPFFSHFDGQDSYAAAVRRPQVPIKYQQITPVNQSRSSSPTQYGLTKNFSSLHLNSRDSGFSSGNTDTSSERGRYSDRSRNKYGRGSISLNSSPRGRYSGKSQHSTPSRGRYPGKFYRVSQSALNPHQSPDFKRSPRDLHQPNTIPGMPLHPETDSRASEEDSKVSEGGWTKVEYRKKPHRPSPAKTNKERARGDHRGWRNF", "conditions": "kinase ZAK, singlicate", "from_the_text": "as §1"}, "[5]": {"biological_target": "320 wild-type protein kinases (Homo sapiens, UniProt P27448)", "conditions": "singlicate", "from_the_text": "as §1"}, "[6]": {"biological_target": "320 wild-type protein kinases (Homo sapiens, UniProt Q9Y2K2)", "conditions": "kinase SIK3, singlicate", "from_the_text": "as §1"}, "[7]": {"biological_target": "320 wild-type protein kinases (Homo sapiens, UniProt Q96SB4)", "conditions": "kinase SRPK1, singlicate", "from_the_text": "as §1"}, "[8]": {"biological_target": "320 wild-type protein kinases (Homo sapiens, UniProt P16234)", "conditions": "PDGFR-alpha, singlicate", "from_the_text": "as §1"}, "[9]": {"biological_target": "320 wild-type protein kinases (Homo sapiens, UniProt Q16584)", "sequence (Q16584 whole entry)": "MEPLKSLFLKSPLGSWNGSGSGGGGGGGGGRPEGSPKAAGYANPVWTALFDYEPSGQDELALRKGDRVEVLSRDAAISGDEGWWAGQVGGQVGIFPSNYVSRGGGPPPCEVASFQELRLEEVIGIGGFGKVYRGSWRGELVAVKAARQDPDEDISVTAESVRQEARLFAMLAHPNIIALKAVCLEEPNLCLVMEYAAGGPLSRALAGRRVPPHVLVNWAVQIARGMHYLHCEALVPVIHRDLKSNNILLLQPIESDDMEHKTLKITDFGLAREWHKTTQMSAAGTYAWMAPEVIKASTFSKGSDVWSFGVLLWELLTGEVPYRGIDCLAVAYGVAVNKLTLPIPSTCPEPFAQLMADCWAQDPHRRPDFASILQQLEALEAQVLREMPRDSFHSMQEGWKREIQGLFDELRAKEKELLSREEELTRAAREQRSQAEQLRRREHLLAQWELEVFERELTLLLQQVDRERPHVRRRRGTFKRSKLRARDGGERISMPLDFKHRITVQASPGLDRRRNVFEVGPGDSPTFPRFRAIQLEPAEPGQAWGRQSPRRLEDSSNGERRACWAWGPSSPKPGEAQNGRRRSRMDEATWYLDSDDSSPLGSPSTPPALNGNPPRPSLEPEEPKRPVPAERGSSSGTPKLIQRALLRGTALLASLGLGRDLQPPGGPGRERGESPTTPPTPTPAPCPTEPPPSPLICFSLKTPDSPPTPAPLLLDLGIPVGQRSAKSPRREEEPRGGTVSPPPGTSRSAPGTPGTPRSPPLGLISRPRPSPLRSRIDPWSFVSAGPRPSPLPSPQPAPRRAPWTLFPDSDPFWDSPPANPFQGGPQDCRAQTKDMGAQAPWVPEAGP", "conditions": "singlicate", "from_the_text": "as §1"}, "[10]": {"biological_target": "320 wild-type protein kinases (Homo sapiens, UniProt Q16513)", "conditions": "singlicate", "from_the_text": "as §1"}, "[11]": {"biological_target": "320 wild-type protein kinases (Homo sapiens, UniProt Q9Y5S2)", "sequence (Q9Y5S2 whole entry)": "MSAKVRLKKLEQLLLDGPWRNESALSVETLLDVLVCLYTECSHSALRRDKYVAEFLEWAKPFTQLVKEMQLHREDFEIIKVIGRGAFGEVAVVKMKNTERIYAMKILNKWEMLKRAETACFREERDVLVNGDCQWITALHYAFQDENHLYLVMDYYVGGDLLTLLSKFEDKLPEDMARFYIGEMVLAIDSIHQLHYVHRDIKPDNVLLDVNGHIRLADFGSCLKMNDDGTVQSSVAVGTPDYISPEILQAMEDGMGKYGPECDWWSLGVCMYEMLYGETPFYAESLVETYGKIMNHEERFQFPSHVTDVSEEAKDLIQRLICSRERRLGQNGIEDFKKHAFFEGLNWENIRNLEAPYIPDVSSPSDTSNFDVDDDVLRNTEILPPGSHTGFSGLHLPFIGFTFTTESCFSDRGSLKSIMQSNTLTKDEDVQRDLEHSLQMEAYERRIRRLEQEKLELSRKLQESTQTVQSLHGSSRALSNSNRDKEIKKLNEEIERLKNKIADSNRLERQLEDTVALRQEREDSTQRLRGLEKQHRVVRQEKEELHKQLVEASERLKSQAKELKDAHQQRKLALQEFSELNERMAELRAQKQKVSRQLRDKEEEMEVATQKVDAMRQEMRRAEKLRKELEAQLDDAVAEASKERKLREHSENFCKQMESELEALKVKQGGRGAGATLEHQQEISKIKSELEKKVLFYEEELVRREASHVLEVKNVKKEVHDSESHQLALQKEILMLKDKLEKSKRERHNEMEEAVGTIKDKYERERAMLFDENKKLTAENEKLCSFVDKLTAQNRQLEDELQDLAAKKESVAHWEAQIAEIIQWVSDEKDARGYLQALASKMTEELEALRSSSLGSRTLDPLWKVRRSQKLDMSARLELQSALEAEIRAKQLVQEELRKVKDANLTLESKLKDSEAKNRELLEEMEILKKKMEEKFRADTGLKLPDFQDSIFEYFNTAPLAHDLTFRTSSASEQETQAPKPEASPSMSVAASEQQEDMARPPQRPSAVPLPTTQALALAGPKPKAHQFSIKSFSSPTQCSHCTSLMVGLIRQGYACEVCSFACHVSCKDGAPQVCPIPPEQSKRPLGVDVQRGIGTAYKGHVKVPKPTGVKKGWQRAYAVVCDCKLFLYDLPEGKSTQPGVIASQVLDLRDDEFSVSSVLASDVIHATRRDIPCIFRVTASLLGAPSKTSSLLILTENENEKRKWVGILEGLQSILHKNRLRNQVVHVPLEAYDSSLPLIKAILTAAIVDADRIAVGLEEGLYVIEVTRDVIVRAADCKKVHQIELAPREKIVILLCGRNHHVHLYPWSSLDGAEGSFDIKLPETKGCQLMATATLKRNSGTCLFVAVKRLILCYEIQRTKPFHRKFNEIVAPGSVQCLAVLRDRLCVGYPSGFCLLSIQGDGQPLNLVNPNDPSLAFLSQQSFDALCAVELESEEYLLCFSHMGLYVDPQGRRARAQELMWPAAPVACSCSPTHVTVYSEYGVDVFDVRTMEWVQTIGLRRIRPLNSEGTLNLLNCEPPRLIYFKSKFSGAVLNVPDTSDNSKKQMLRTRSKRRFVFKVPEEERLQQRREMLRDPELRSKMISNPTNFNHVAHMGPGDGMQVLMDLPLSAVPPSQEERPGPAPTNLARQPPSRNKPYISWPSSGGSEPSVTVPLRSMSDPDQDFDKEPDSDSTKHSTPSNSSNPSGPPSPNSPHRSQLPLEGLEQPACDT", "conditions": "CDC42BPB, singlicate", "from_the_text": "as §1"}, "[12]": {"biological_target": "320 wild-type protein kinases (Homo sapiens, UniProt Q04759)", "sequence (Q04759 whole entry)": "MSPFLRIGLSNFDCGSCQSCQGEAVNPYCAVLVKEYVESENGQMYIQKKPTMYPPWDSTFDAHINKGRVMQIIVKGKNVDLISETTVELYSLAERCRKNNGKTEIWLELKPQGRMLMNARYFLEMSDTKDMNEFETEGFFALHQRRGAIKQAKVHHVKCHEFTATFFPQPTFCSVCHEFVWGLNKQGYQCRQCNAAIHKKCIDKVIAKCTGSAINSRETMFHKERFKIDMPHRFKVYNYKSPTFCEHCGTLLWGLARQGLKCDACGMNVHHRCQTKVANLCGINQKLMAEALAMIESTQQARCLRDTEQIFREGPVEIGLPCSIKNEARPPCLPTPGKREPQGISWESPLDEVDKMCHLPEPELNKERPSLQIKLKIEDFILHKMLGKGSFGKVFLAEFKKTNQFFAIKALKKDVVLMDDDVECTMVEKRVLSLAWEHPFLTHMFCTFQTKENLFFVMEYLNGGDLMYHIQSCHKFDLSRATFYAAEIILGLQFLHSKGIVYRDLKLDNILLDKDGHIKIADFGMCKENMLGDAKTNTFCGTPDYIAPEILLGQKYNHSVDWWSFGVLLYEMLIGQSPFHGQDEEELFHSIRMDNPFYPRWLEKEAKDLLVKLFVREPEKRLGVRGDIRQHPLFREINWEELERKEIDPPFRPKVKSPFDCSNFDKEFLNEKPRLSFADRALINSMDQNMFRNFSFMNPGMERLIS", "conditions": "PKC-theta, singlicate", "from_the_text": "as §1"}, "[13]": {"biological_target": "T3, 320 wild-type protein kinases (Homo sapiens, UniProt O14733)", "T3 sequence (O14733 1-419)": "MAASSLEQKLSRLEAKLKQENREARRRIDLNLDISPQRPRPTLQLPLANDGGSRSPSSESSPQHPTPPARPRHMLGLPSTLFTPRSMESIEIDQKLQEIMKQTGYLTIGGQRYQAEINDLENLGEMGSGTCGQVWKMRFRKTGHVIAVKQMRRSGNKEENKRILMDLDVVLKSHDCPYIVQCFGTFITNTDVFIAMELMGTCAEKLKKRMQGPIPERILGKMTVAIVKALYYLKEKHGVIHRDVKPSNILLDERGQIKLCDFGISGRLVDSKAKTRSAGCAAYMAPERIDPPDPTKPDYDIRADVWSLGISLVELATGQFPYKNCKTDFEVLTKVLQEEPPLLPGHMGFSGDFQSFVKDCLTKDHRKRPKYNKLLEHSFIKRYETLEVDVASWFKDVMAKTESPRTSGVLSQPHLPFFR", "conditions": "singlicate", "from_the_text": "as §1"}, "[14]": {"biological_target": "320 wild-type protein kinases (Homo sapiens, UniProt Q9UPE1)", "sequence (Q9UPE1 whole entry)": "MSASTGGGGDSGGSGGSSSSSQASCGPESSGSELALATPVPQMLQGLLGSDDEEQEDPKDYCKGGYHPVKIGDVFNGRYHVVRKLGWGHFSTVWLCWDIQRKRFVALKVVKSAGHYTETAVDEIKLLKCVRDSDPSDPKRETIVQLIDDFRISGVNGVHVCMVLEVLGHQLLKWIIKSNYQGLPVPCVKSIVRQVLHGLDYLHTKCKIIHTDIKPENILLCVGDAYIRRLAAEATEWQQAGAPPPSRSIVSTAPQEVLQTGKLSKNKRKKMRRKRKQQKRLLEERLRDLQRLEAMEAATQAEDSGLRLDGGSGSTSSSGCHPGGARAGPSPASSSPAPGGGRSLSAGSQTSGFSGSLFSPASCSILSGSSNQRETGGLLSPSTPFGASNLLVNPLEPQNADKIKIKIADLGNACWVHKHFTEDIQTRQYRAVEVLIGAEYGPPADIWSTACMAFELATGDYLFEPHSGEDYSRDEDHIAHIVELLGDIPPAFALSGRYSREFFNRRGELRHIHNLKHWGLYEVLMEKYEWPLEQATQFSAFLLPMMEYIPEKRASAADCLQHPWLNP", "conditions": "kinase STK23, singlicate", "from_the_text": "as §1"}},
  "note": "Like-named read-outs stand apart in the source and are kept apart here.",
  "data": [
    {"smiles": "C#Cc1cc(Nc2ncnc3cc(OC)c(OC)cc23)ccc1Cl", "note": "[Compound 45]", "values": [
      {"measurement": "Residual activity", "setting": "[1]; GRK7, 1.0E-06 M", "result": "121 % of control"},
      {"measurement": "Residual activity", "setting": "[1]; GRK7, 1.0E-07 M", "result": "115 % of control"},
      {"measurement": "Residual activity, PYK2", "setting": "[2]; assay conc. 1.0E-06 M", "result": "92 % of control"},
      {"measurement": "Residual activity, PYK2", "setting": "[2]; assay conc. 1.0E-07 M", "result": "95 % of control"},
      {"measurement": "Residual activity", "setting": "[3]; 1.0E-06 M", "result": "81 % of control"},
      {"measurement": "Residual activity", "setting": "[3]; 1.0E-07 M", "result": "92 % of control"},
      {"measurement": "Residual activity, ZAK", "setting": "[4]; assay conc. 1.0E-06 M", "result": "80 % of control"},
      {"measurement": "Residual activity, ZAK", "setting": "[4]; assay conc. 1.0E-07 M", "result": "100 % of control"},
      {"measurement": "Residual activity", "setting": "[5]; MARK3, 1.0E-06 M", "result": "100 % of control"},
      {"measurement": "Residual activity", "setting": "[5]; MARK3, 1.0E-07 M", "result": "96 % of control"},
      {"measurement": "Residual activity, SIK3", "setting": "[6]; assay conc. 1.0E-06 M", "result": "58 % of control"},
      {"measurement": "Residual activity, SIK3", "setting": "[6]; assay conc. 1.0E-07 M", "result": "83 % of control"},
      {"measurement": "Residual activity, SRPK1", "setting": "[7]; assay conc. 1.0E-06 M", "result": "97 % of control"},
      {"measurement": "Residual activity, SRPK1", "setting": "[7]; assay conc. 1.0E-07 M", "result": "100 % of control"},
      {"measurement": "Residual activity", "setting": "[8]; 1.0E-06 M", "result": "95 % of control"},
      {"measurement": "Residual activity", "setting": "[8]; 1.0E-07 M", "result": "105 % of control"},
      {"measurement": "Residual activity", "setting": "[9]; MAP3K11, 1.0E-06 M", "result": "59 % of control"},
      {"measurement": "Residual activity", "setting": "[9]; MAP3K11, 1.0E-07 M", "result": "79 % of control"},
      {"measurement": "Residual activity", "setting": "[10]; PRK2, 1.0E-06 M", "result": "95 % of control"},
      {"measurement": "Residual activity", "setting": "[10]; PRK2, 1.0E-07 M", "result": "92 % of control"},
      {"measurement": "Residual activity", "setting": "[11]; 1.0E-06 M", "result": "95 % of control"},
      {"measurement": "Residual activity", "setting": "[11]; 1.0E-07 M", "result": "98 % of control"},
      {"measurement": "Residual activity", "setting": "[12]; 1.0E-06 M", "result": "101 % of control"},
      {"measurement": "Residual activity", "setting": "[12]; 1.0E-07 M", "result": "109 % of control"},
      {"measurement": "Residual activity", "setting": "[13]; MKK7, 1.0E-06 M", "result": "98 % of control"},
      {"measurement": "Residual activity", "setting": "[13]; MKK7, 1.0E-07 M", "result": "112 % of control"},
      {"measurement": "Residual activity, STK23", "setting": "[14]; assay conc. 1.0E-06 M", "result": "87 % of control"},
      {"measurement": "Residual activity, STK23", "setting": "[14]; assay conc. 1.0E-07 M", "result": "97 % of control"}
    ]},
    {"smiles": "C#Cc1cc(Nc2ncnc3cc(I)ccc23)ccc1Cl", "note": "[Compound 41]", "values": [
      {"measurement": "Residual activity", "setting": "[1]; GRK7, 1.0E-06 M", "result": "116 % of control"},
      {"measurement": "Residual activity", "setting": "[1]; GRK7, 1.0E-07 M", "result": "124 % of control"},
      {"measurement": "Residual activity, PYK2", "setting": "[2]; assay conc. 1.0E-06 M", "result": "97 % of control"},
      {"measurement": "Residual activity, PYK2", "setting": "[2]; assay conc. 1.0E-07 M", "result": "103 % of control"},
      {"measurement": "Residual activity", "setting": "[3]; 1.0E-06 M", "result": "77 % of control"},
      {"measurement": "Residual activity", "setting": "[3]; 1.0E-07 M", "result": "86 % of control"},
      {"measurement": "Residual activity, ZAK", "setting": "[4]; assay conc. 1.0E-06 M", "result": "85 % of control"},
      {"measurement": "Residual activity, ZAK", "setting": "[4]; assay conc. 1.0E-07 M", "result": "98 % of control"},
      {"measurement": "Residual activity", "setting": "[5]; MARK3, 1.0E-06 M", "result": "95 % of control"},
      {"measurement": "Residual activity", "setting": "[5]; MARK3, 1.0E-07 M", "result": "97 % of control"},
      {"measurement": "Residual activity, SIK3", "setting": "[6]; assay conc. 1.0E-06 M", "result": "72 % of control"},
      {"measurement": "Residual activity, SIK3", "setting": "[6]; assay conc. 1.0E-07 M", "result": "77 % of control"},
      {"measurement": "Residual activity, SRPK1", "setting": "[7]; assay conc. 1.0E-06 M", "result": "89 % of control"},
      {"measurement": "Residual activity, SRPK1", "setting": "[7]; assay conc. 1.0E-07 M", "result": "96 % of control"},
      {"measurement": "Residual activity", "setting": "[8]; 1.0E-06 M", "result": "117 % of control"},
      {"measurement": "Residual activity", "setting": "[8]; 1.0E-07 M", "result": "118 % of control"},
      {"measurement": "Residual activity", "setting": "[9]; MAP3K11, 1.0E-06 M", "result": "73 % of control"},
      {"measurement": "Residual activity", "setting": "[9]; MAP3K11, 1.0E-07 M", "result": "75 % of control"},
      {"measurement": "Residual activity", "setting": "[10]; PRK2, 1.0E-06 M", "result": "88 % of control"},
      {"measurement": "Residual activity", "setting": "[10]; PRK2, 1.0E-07 M", "result": "85 % of control"},
      {"measurement": "Residual activity", "setting": "[11]; 1.0E-06 M", "result": "98 % of control"},
      {"measurement": "Residual activity", "setting": "[11]; 1.0E-07 M", "result": "101 % of control"},
      {"measurement": "Residual activity", "setting": "[12]; 1.0E-06 M", "result": "102 % of control"},
      {"measurement": "Residual activity", "setting": "[12]; 1.0E-07 M", "result": "101 % of control"},
      {"measurement": "Residual activity", "setting": "[13]; MKK7, 1.0E-06 M", "result": "120 % of control"},
      {"measurement": "Residual activity", "setting": "[13]; MKK7, 1.0E-07 M", "result": "86 % of control"},
      {"measurement": "Residual activity, STK23", "setting": "[14]; assay conc. 1.0E-06 M", "result": "94 % of control"},
      {"measurement": "Residual activity, STK23", "setting": "[14]; assay conc. 1.0E-07 M", "result": "93 % of control"}
    ]}
  ]
}
